Results from patent US20220249643A1, “ANTI-NEOPLASTIC COMBINED PHARMACEUTICAL COMPOSITION AND APPLICATION THEREOF” (priority 2019, published 2022).
“Also recorded” adds a separate entry of the source. Where two headings read alike, the source gives them in different places.

Key:
[1] = test system: mouse Lewis lung carcinoma (LLC); type: in vivo, C57BL/6 mice; settings: vs Con
[2] = test system: mouse Lewis lung carcinoma (LLC); type: in vivo, C57BL/6 mice; settings: for Significance, survival (intergroup comparison): vs Con
[3] = test system: Plasmodium yoelii; experiment: Infection rate of Plasmodium (parasitemia) in tumor-bearing mice, Plasmodium yoelii; type: in vivo
[4] = type: in vivo, C57BL/6 mice
From the text: The effects of the chemotherapeutic agent and Plasmodium infection on the weight of tumor-bearing mice were observed.

[5] = test system: Plasmodium chabaudi
Protocol: (III) Preparation of thin blood film and microscopic examination: about 1-1.5 μL of blood was collected from tails of mice and smeared on slides so that a long tongue-shaped thin blood film with a length of 2.5 cm was prepared and blow-dried with a blower. The blood film was infiltrated with methanol for 1 min, stained with 1× Giemsa stain for 30 min, rinsed with tap water and blow-dried. The infection rate of Plasmodium was observed by a 100× oil immersion objective. Changes of the infection rate of Plasmodium were observed.
(V) Inoculation of tumor-bearing mice: 7 days after tumor was subcutaneously inoculated, each mouse was inoculated with 0.2 mL of Plasmodium, that is, 5×10^5 Plasmodium parasites.
(III) Statistics of the infection rate of Plasmodium: the infection rate of Plasmodium was evaluated by a percentage of red blood cells infected with Plasmodium in mice, where the calculation formula was (the number of red blood cells infected with Plasmodium/a total number of red blood cells)×100%. Specific procedures were as follows: blood was taken from tail veins and smeared on a slide, fixed with methanol, and stained with Giemsa stain. The number of red blood cells infected with Plasmodium and the total number of red blood cells were observed under a microscope. The total number of red blood cells was about 1000.

[6] = Example 5, CTX 20 mg/kg×3 ip day 6, 13, 20, Py day 7
[7] = Example 6, CTX 20 mg/kg×3 ip day 6, 13, 20, Pc day 7
[8] = Example 1, GEM 100 mg/kg ip on day 3
[9] = Example 1, GEM 100 mg/kg ip on day 6
[10] = Example 2, GEM divided 50 mg/kg ip day 6 and day 13
[11] = Example 2, GEM single dose 100 mg/kg ip day 6
[12] = Example 3, GEM 50 mg/kg ip day 6 and day 13, Py day 7
[13] = Example 4, GEM 50 mg/kg ip day 6 and day 13, Pc day 7

## O=P1(N(CCCl)CCCl)NCCCO1 (centres unmarked) [CTX, cyclophosphamide]
[1]; [6]
  Significance, tumor growth (intergroup comparison): * (“*” represents p<0.05)
[1]; [7]
  Significance, tumor growth (intergroup comparison): * (“*” represents p<0.05)
[2]; [6]
  median survival time: 37 days
[2]; Example 5
  Significance, survival (intergroup comparison): ** (“**” represents p<0.01)
[2]; [7]
  median survival time: 39.5 days
[2]; Example 6
  Significance, survival (intergroup comparison): * (“*” represents p<0.05)
[3]; Example 5, CTX 20 mg/kg×3 ip
  effect on Plasmodium infection: relatively small effect on Plasmodium
[4]; Example 5, CTX 20 mg/kg×3 ip, Py day 7
  effect on weight of tumor-bearing mice: affected little
[4]; Example 6, CTX 20 mg/kg×3 ip, Pc day 7
  effect on weight of tumor-bearing mice: affected little
[5]; Example 6, CTX 20 mg/kg×3 ip
  effect on Plasmodium infection: relatively small effect on Plasmodium chabaudi

## [NH2][Pt]([NH2])([Cl])[Cl] [DDP, cis-platinum]
[1]; Example 8, DDP 1 mg/kg×7 ip every two days from day 7, Py day 7
  Significance, tumor growth (intergroup comparison): ** (“**” represents p<0.01)
[2]; Example 8, DDP 1 mg/kg×7 ip, Py day 7
  median survival time: 30 days
[3]; Example 8, DDP 1 mg/kg×7 ip, vs single Plasmodium yoelii group
  effect on Plasmodium infection (parasitemia): inhibitory effect on Plasmodium

## Nc1ccn([C@@H]2O[C@H](CO)[C@@H](O)C2(F)F)c(=O)n1 [GEM, gemcitabine]
[1]; [8]
  Significance, tumor growth (intergroup comparison): ** (“**” represents p<0.01)
[1]; [9]
  Significance, tumor growth (intergroup comparison): ** (“**” represents p<0.01)
[1]; [10]
  Significance, tumor growth (intergroup comparison): ** (“**” represents p<0.01)
[1]; [11]
  Significance, tumor growth (intergroup comparison): ** (“**” represents p<0.01)
[1]; [12]
  Significance, tumor growth (intergroup comparison): ** (“**” represents p<0.01)
[1]; [13]
  Significance, tumor growth (intergroup comparison): ** (“**” represents p<0.01)
[2]; [8]
  median survival time: 34.5 days
  Significance, survival (intergroup comparison): * (“*” represents p<0.05)
[2]; [9]
  median survival time: 33 days
  Significance, survival (intergroup comparison): ** (“**” represents p<0.01)
[2]; [10]
  median survival time: 38.5 days
[2]; [11]
  median survival time: 33 days
[2]; [12]
  median survival time: 36 days
  Significance, survival (intergroup comparison): ** (“**” represents p<0.01)
[2]; [13]
  median survival time: 35 days
[3]; Example 1, GEM 100 mg/kg ip day 3 or day 6
  effect on Plasmodium infection: certain inhibitory effect on Plasmodium yoelii but will not eliminate Plasmodium
[3]; Example 2, GEM single dose or divided doses, total 100 mg/kg
  effect on Plasmodium infection: certain inhibitory effect on Plasmodium
[3]; Example 3, GEM 50 mg/kg ip day 6 and day 13
  effect on Plasmodium infection: certain inhibitory effect on Plasmodium yoelii but will not eliminate Plasmodium yoelii
[4]; Example 1, GEM 100 mg/kg ip, Py day 7
  effect on weight of tumor-bearing mice: affected little
[4]; Example 2, GEM total 100 mg/kg ip, Py day 7
  effect on weight of tumor-bearing mice: affected little
[4]; [12]
  effect on weight of tumor-bearing mice: affected little
[4]; [13]
  effect on weight of tumor-bearing mice: affected little
[5]; Example 4, GEM 50 mg/kg ip day 6 and day 13
  effect on Plasmodium infection: inhibitory effect on Plasmodium chabaudi but will not eliminate Plasmodium

## Cc1c(O)cccc1C(=O)N[C@@H](CSc1ccccc1)[C@H](O)CN1C[C@H]2CCCC[C@H]2C[C@H]1C(=O)NC(C)(C)C [NFV, nelfinavir]
[1]; Example 12, NFV 400 mg/kg×10, intraperitoneal injection, from day 10, Py day 7
  Significance, tumor growth (intergroup comparison): ** (“**” represents p<0.01)
[2]; Example 12, NFV 400 mg/kg×10 from day 10, Py day 7
  median survival time: 34 days
[3]; Example 12, NFV 400 mg/kg×10
  effect on Plasmodium infection: relatively small effect on Plasmodium
[4]; Example 12, NFV 400 mg/kg×10
  toxic and side effects on tumor-bearing mice: will not increase toxic and side effects on tumor-bearing mice
[4]; Example 12, continuous administration of nelfinavir alone
  effect on weight of tumor-bearing mice: relatively small effect on the weight of tumor-bearing mice

## Nc1nc2[nH]cc(CCc3ccc(C(=O)N[C@@H](CCC(=O)O)C(=O)O)cc3)c2c(=O)[nH]1 [PEM, pemetrexed]
[1]; Example 7, PEM 20 mg/kg×6 ip day 3, 7, 10, 14, 17, 21, Py day 7
  Significance, tumor growth (intergroup comparison): ** (“**” represents p<0.01)
[2]; Example 7, PEM 20 mg/kg×6 ip, Py day 7
  median survival time: 32.5 days
[3]; Example 7, PEM 20 mg/kg×6 ip
  effect on Plasmodium infection: relatively small effect on Plasmodium; also recorded: no inhibitory effect on Plasmodium yoelii

## CC(=O)O[C@@]12CO[C@@H]1C[C@H](O)[C@@]1(C)C(=O)[C@H](O)C3=C(C)[C@@H](OC(=O)[C@H](O)[C@@H](NC(=O)OC(C)(C)C)c4ccccc4)C[C@@](O)([C@@H](OC(=O)c4ccccc4)[C@H]21)C3(C)C [docetaxel]
[3]; Example 10, DTX high dosage 2 mg/kg×3
  effect on Plasmodium infection: significantly inhibit Plasmodium
[3]; Example 10, DTX low dosage 2.2 mg/kg×3
  effect on Plasmodium infection: relatively small effect on Plasmodium
[3]; Example 10, DTX medium dosage 6.7 mg/kg×3
  effect on Plasmodium infection: significantly inhibit Plasmodium
[4]; Example 10, in the combined therapy, DTX high dosage
  effect on weight of tumor-bearing mice: very significant effect in reducing the weight of the tumor-bearing mice
[4]; Example 10, in the combined therapy, DTX low dosage
  effect on weight of tumor-bearing mice: relatively small effects
[4]; Example 10, in the combined therapy, DTX medium dosage
  effect on weight of tumor-bearing mice: relatively small effects

## COc1cc([C@@H]2c3cc4c(cc3[C@@H](O[C@@H]3O[C@@H]5CO[C@@H](C)O[C@H]5[C@H](O)[C@H]3O)[C@H]3COC(=O)[C@H]23)OCO4)cc(OC)c1O [etoposide]
[3]; Example 11, VP16 low and high dosage
  effect on Plasmodium infection: obvious inhibitory effect on Plasmodium

## CO[C@@]12[C@H](COC(N)=O)C3=C(C(=O)C(C)=C(N)C3=O)N1C[C@@H]1N[C@@H]12 [mitomycin]
[3]; Example 9, MMC low, medium, high dosage, the higher concentration, the more obvious
  effect on Plasmodium infection: certain inhibitory effect on Plasmodium
[4]; Example 9, three combined treatment groups
  effect on weight of tumor-bearing mice: affected little
